Like-named read-outs stand apart in the source and are kept apart here.
Tests used:
[1] = test system: aspirin-induced gastric bleeding; format: in vivo, cats; settings: cat, 30 min, aspirin 10 mg topical, no glyceryl guaiacolate
Protocol: Fasted cats weighing […] were anesthetized with phenobarbital sodium (130 mg/kg, i.p.). Glyceryl guaiacolate was administered intravenously for a total of 2 hrs. beginning 60 min. prior to the topical application of the aspirin (10 mg) to the gastric mucosa. Throughout the experiment, artificial gastric juice (USP, pH 1.3) bathed the mucosa by means of the specially designed chamber. The number of bleeding sites occurring at various exposure sites were recorded at 15, 30 and 60 min. Glyceryl guaiacolate was given at doses of 10 and 30 mg/kg/hr via a previously cannulated jugular vein using an infusion pump (Harvard Apparatus Co., Model 1202). […] An important point is that with 30 mg/kg/hr, i.v., of glyercyl guaiacolate there was no bleeding at 30 min. compared with an average of 14 bleeding sites when no glyceryl guaiacolate was adminsitered. A total of 23 cats were used and there was a minimum of 24 aspirin exposure sites for each dose of glyceryl guaiacolate.

[2] = test system: Carrageenan pleural effusion; assay: Evans Blue-Carrageenan Pleural Effusion Test; format: in vivo, rats; settings: rat
Description: The effect of metaxalone (Compound 15) on the anti-inflammatory activity of aspirin in rats was studied using a modification of the Evans Blue-Carrageenan Pleural Effusion Test [Sancilio, L. F., Journal of Pharmacology and Experimental Therapeutics 168, 199-204 (1969)].

[3] = test system: aspirin-induced gastric bleeding; assay: Aspirin-induced gastric bleeding in Cr51 labeled Heidenhain pouch dogs, oral; format: in vivo; settings: dog; for Mucosal Blood Loss, HCl + Aspirin / Mucosal Blood Loss, HCl: ± S.E.; for Mucosal Blood Loss, HCl: without aspirin; for % Change from Control (mucosal blood loss): P >0.05
Protocol: Methocarbamol (Compound 3) and Metaxalone (Compound 15) were evaluated for their effectiveness upon oral administration against aspirin-induced gastric bleeding in dogs. Three female chronic Heindehain pouch dogs were used. Red blood cells from each dog were labeled with Cr^51. The dogs were fasted 24 hours prior to any study and three days elapsed between studies. On experimental days each fundic pouch was rinsed with tepid tap water and then filled with 10 ml. of normal saline. After 30 minutes the saline was replaced with 10 ml. of artificial gastric juice (USP, pH 1.3). The dogs were given Compound 3 (200 mg/kg) or Compound 15 (50 and 100 mg/kg) or placebo (starch) orally in gelatin capsules. The 10 ml. of gastric juice was removed from the pouch after 60 minutes and replaced with another 10 ml. of juice containing 100 mg. of aspirin (80 mesh). This was likewise removed after 60 minutes. All samples collected from the pouches were counted for radio-activity using a deep-well counter. From the amount of radio-activity present in the gastric samples, the loss of blood into the pouch was determined. The results are shown in Table 3 and show the effectiveness of orally administering Compounds 3 and 15 in preventing aspirin-induced gastric bleeding.

[4] = test system: aspirin-induced gastric bleeding; assay: Prevention of aspirin-induced gastric bleeding in pyloric-ligated rats, i.p. test compound (Examples 1-22); format: in vivo, Female Sprague-Dawley rats; settings: rat
Protocol: The prevention of aspirin-induced bleeding in rats was determined by the following procedure. Female Sprague-Dawley rats weighing 150-180 g. were fasted for 24 hours on wire and divided into groups of six animals each. The rats were anesthetized and a ligature placed at the pyloric-duodenal junction. Groups serving as controls received normal saline (4.0 ml/kg, i.p.). […] Some of the compounds were tested at 50 mg/kg, i.p. The rats were sacrificed 60 min. after aspirin administration by cervical dislocation. The volume of the gastric contents was determined and compared against that produced with the same amount of aspirin for change in volume. […] (Gradation between 0 to 40 is on an even scale).

For CC(=O)Oc1ccccc1C(=O)O [Aspirin, aspirin], which “average number of bleeding sites” value [1] is on record?
Its value is 14 bleeding sites.

And the “Pleural Fluid” value ([2]; aspirin 150 mg/kg oral, ± S.D., P <0.05)?
Its value is 4.2 ± 0.28 mL.

What about the “% Decrease in Pleural Fluid vs Control” value ([2]; aspirin 150 mg/kg oral, P <0.05) of the same compound?
Its value is 38%.

How did the “effect on the anti-inflammatory effectiveness of aspirin” value ([2]; metaxalone 100 mg/kg 30 min before aspirin 150 mg/kg p.o. and again 2 hrs after Carrageenan) turn out when Cc1cc(C)cc(OCC2CNC(=O)O2)c1 (centres unmarked) [Compound 15, 5-(3,5-dimethylphenoxymethyl)-2-oxazolidinone] was run?
The value was “no effect”.

What about the “% Protection” value ([3]; 50 mg/kg p.o.) of the same compound?
The value was 77%.

What about the “Mucosal Blood Loss, HCl + Aspirin” value ([3]; 50 mg/kg p.o.) of the same compound?
The value was 8.6 ± 3.7 µL.

What about the “Mucosal Blood Loss, HCl” value ([3]; 50 mg/kg p.o.) of the same compound?
Its value is 4.4 ± 2.4 µL.

What about the “% Change from Control (mucosal blood loss)” value ([3]; 50 mg/kg p.o.) of the same compound?
Its value is “+95%”.

And the “% Protection” value ([3]; 100 mg/kg p.o.)?
Its value is 100%.

What about the “Mucosal Blood Loss, HCl + Aspirin” value ([3]; 100 mg/kg p.o.) of the same compound?
The value was 12.7 ± 3.5 µL.

And the “Mucosal Blood Loss, HCl” value ([3]; 100 mg/kg p.o.)?
Its value is 13.0 ± 1.5 µL.

What about the “% Change from Control (mucosal blood loss)” value ([3]; 100 mg/kg p.o.) of the same compound?
The value was -2%.

What about the “preventing aspirin-induced gastric bleeding (in words)” value ([3]; oral) of the same compound?
The value was “effectiveness”.

What about the change in vivo at 50 mg/kg ([4]; ip, 1 h, 50 mg/kg i.p., aspirin 375 mg/kg p.o., read-out: Percent Decrease in Mucosal Bleeding vs Control) of the same compound?
The change in vivo at 50 mg/kg was -98%.

And the change in vivo at 100 mg/kg ([4]; ip, 1 h, 100 mg/kg i.p., aspirin 375 mg/kg p.o., read-out: Percent Decrease in Mucosal Bleeding vs Control)?
Its change in vivo at 100 mg/kg is -96%.

And the ED50 ([4]; ip)?
Its ED50 is 19.6 mg/kg.

What about the change in vivo at 100 mg/kg ([4]; ip, 100 mg/kg i.p. (column head states no dose), aspirin 375 mg/kg p.o., read-out: Vol. % Decrease in Gastric Secretion) of the same compound?
The change in vivo at 100 mg/kg was -41.4%.

What about the “Gastric Bleeding Index” value ([4]; 12.5 mg/kg i.p.) of the same compound?
Its value is 27.5 ± 4.2.

And the “Total Hemoglobin Loss” value ([4]; 12.5 mg/kg i.p.)?
The value was 19.3 ± 3.4 mg.

And the “Vol. Gastric Secretion” value ([4]; 12.5 mg/kg i.p.)?
The value was 6.3 ± 0.3 mL.

What about the “Percent Decrease in Mucosal Hemorrhage vs Control” value (shortened to “Percent Decrease”) ([4]; 12.5 mg/kg i.p., P >.05) of the same compound?
The value was 21%.

What about the “Gastric Bleeding Index” value ([4]; 25.0 mg/kg i.p.) of the same compound?
The value was 15.0 ± 5.0.

And the “Total Hemoglobin Loss” value ([4]; 25.0 mg/kg i.p.)?
Its value is 15.3 ± 6.3 mg.

What about the “Vol. Gastric Secretion” value ([4]; 25.0 mg/kg i.p.) of the same compound?
The value was 5.1 ± 0.3 mL.

And the “Percent Decrease” value ([4]; 25.0 mg/kg i.p., P <.025)?
Its value is 57%.

And the “Gastric Bleeding Index” value ([4]; 50.0 mg/kg i.p.)?
The value was 0.8 ± 0.8.

What about the “Total Hemoglobin Loss” value ([4]; 50.0 mg/kg i.p.) of the same compound?
Its value is 2.5 ± 1.1 mg.

What about the “Vol. Gastric Secretion” value ([4]; 50.0 mg/kg i.p.) of the same compound?
The value was 3.6 ± 0.5 mL.

And the “Percent Decrease” value ([4]; 50.0 mg/kg i.p., P <.001)?
Its value is 98%.

What about the “Gastric Bleeding Index” value ([4]; 100.0 mg/kg i.p.) of the same compound?
Its value is 3.3 ± 1.7.

What about the “Total Hemoglobin Loss” value ([4]; 100.0 mg/kg i.p.) of the same compound?
Its value is 2.5 ± 1.4 mg.

What about the “Vol. Gastric Secretion” value ([4]; 100.0 mg/kg i.p.) of the same compound?
Its value is 3.8 ± 0.4 mL.

And the “Percent Decrease” value ([4]; 100.0 mg/kg i.p., P <.001)?
The value was 91%.

What about the “preventing aspirin-induced gastric bleeding (in words)” value ([4]; i.p.) of the same compound?
The value was “very effective”.

What about the “Gastric Bleeding Index” value ([4]; score 0 to 40, 100 mg/kg i.p. (column head states no dose), aspirin 375 mg/kg p.o.) of the same compound?
The value was 0.8.
